These results are taken from patent US5939413A, “Piperazine derivatives” (Fujisawa Pharmaceutical Co., Ltd., priority 1995, dated 1999).

Counter-ions that a name gives are not always drawn.

The first experiment deals with T1, h-NK1 receptors (Homo sapiens, UniProt P25103).
T1 construct: expressed in transfected cells; host or cells: CHO cells, permanently expressing; crude membranes
T1 sequence (P25103 whole entry): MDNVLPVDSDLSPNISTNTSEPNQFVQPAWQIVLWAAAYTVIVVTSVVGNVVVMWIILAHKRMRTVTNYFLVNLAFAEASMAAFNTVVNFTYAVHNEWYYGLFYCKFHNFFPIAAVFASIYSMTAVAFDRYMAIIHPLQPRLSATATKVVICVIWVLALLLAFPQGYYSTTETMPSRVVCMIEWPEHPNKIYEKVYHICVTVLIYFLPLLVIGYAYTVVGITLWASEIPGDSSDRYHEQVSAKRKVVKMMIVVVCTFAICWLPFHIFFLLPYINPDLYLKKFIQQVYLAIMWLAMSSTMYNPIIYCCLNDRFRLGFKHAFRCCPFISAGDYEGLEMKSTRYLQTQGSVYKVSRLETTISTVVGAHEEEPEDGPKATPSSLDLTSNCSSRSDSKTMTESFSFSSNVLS
As to the kind of experiment: 125I-BH-Substance P binding to h-NK1 receptors. The conditions noted are these: read-out: inhibition rate of 125I-BH-Substance P binding to h-NK1 receptors. The protocol:
(a) Crude CHO cell membrane preparation
CHO cells permanently expressing h-NK1 receptors were harvested and homogenized with a Dounce homogenizer at 4° C. in a buffer (0.25 M sucrose, […] Tris-HCl pH 7.4, 10 mM MgCl2, 1 mM EDTA, 5 μg/ml p-APMSF). The homogenate was centrifuged (500×g, 10 minutes), and the pellet was resuspended in the same buffer, homogenized, and centrifuged. The two supernatants were combined and centrifuged (100,000×g, 1 hour). The crude cell membranes thus isolated were resuspended in buffer (25 mM Tris-HCl pH 7.4, 10 mM MgCl2, 1 mM EDTA, 5 μg/ml p-APMSF) and stored at -80° C. until use.
At the end of the incubation period, the content was quickly filtered over a Wahtman GF/C glass filter (pretreated with 0.1% polyethylene imine for 3 hours prior to use) under aspiration. Each of the filters was then washed four times with 5 ml of buffer (50 mM Tris-HCl pH 7.4, 5 mM MnCl2). […] All data presented are specific binding defined as that displaceable by 3 μM unlabeled Substance P.
For the compound `CN1CCCN(C(=O)CN2C[C@@H](Cc3c[nH]c4ccccc34)N(C(=O)c3cc(C(F)(F)F)cc(C(F)(F)F)c3)CC2=O)CC1` [Example 6, (5R)-4-[3,5-bis(trifluoromethyl)benzoyl]-5-(1H-indol-3-ylmethyl)-1-[(4-methyl-1-homopiperazinyl)carbonylmethyl]-piperazin-2-one hydrochloride], the inhibition – broadly, the drop in the measured response relative to a control, in per cent – at 0.1 µg/mL was above 90%.

Still in this experiment, the particulars now being: test compound at 0.1 μg/ml; crude membranes of CHO cells expressing h-NK1 receptors; read-out: inhibition rate of 125I-BH-Substance P binding to h-NK1 receptors.
Turning to `CCOC(=O)CCCN1C[C@@H](Cc2c[nH]c3ccccc23)N(C(=O)c2cc(C(F)(F)F)cc(C(F)(F)F)c2)CC1=O` [Example 2, (5R)-4-[3,5-bis(trifluoromethyl)benzoyl]-1-[3-(ethoxycarbonyl)propyl]-5-(1H-indol-3-ylmethyl)piperazin-2-one], the inhibition at 0.1 µg/mL was above 90%.

Turning to `CCOC(=O)CN1C[C@@H](Cc2c[nH]c3ccccc23)N(C(=O)c2cc(C(F)(F)F)cc(C(F)(F)F)c2)CC1=O` [Example 3, (5R)-4-[3,5-bis(trifluoromethyl)benzoyl]-1-(ethoxycarbonylmethyl)-5-(1H-indol-3-ylmethyl)piperazin-2-one], the inhibition at 0.1 µg/mL was above 90%.

`NC(=O)CN1C[C@@H](Cc2c[nH]c3ccccc23)N(C(=O)c2cc(C(F)(F)F)cc(C(F)(F)F)c2)CC1=O` [Example 5, (5R)-4-[3,5-bis(trifluoromethyl)benzoyl]-1-(carbamoylmethyl)-5-(1H-indol-3-ylmethyl)piperazin-2-one]: the inhibition at 0.1 µg/mL was above 90%.

Regarding `O=C(CN1C[C@@H](Cc2c[nH]c3ccccc23)N(C(=O)c2cc(C(F)(F)F)cc(C(F)(F)F)c2)CC1=O)N1CCC(N2CCCCC2)CC1` [Example 7-1], the inhibition at 0.1 µg/mL was above 90%.

On to `O=C(CCCN1C[C@@H](Cc2c[nH]c3ccccc23)N(C(=O)c2cc(C(F)(F)F)cc(C(F)(F)F)c2)CC1=O)N1CCC(N2CCCCC2)CC1` [Example 7-3], for which the inhibition at 0.1 µg/mL is above 90%.

Take `CN1CCCN(C(=O)CCCN2C[C@@H](Cc3c[nH]c4ccccc34)N(C(=O)c3cc(C(F)(F)F)cc(C(F)(F)F)c3)CC2=O)CC1` [Example 7-4]: the inhibition at 0.1 µg/mL was above 90%.
